Results published in BindingDB's records for doi:10.7270/Q27P8WVP (Nmmlsc, 2010).

Target: Regulator of G-protein signaling 4 (Homo sapiens, UniProt P49798)
Experiment: small molecules altering RGS4 interaction with Galphao – biochemical, multiplexed bead flow cytometry, SAR compounds, SAR follow-up (AID 2295)

Regulator of G-protein signaling 4, sequence (P49798 whole entry): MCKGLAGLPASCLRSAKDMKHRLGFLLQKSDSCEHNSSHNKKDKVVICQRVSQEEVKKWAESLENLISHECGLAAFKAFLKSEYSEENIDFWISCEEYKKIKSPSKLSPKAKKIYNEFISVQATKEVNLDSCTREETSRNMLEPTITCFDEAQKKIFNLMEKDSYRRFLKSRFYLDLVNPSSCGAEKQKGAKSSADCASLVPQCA

Ki: 1.02 µM
SMILES: NS(=O)(=O)c1ccc(N=NCc2ccc(O)c(O)c2O)c([N+](=O)[O-])c1 [4-[[(E)-(2,3-dihydroxy-4-oxo-1-cyclohexa-2,5-dienylidene)methyl]hydrazo]-3-nitrobenzenesulfonamide]
